From ChEMBL document CHEMBL1131984, “Synthesis and antitumour activity of novel diterpenequinone salvicine and the analogs” (Bioorg Med Chem Lett, 1999)
Several values for one entry are separate records, joined by “and”; a condition that tells them apart may be missing. Identical values can stand only once.

Key:
[1] = tested on: SGC-7901; assay: In vitro cytotoxic activity against SGC-7901 stomach cancer solid tumor cell line by MTT assay (microculture terazolium colorimetric); type: functional, cell-based; details: Homo sapiens
[2] = tested on: P388; assay: In vitro cytotoxic activity against P388 mouse leukemia cell line by MTT assay (microculture terazolium colorimetric); type: functional, cell-based
[3] = tested on: SPC-A4; assay: In vitro cytotoxic activity against SPC-A4 lung cancer solid tumor cell line by MTT assay (microculture terazolium colorimetric); type: functional, cell-based; details: Homo sapiens
[4] = tested on: HL-60; assay: In vitro cytotoxic activity against HL-60 human leukemia cell line by MTT assay (microculture terazolium colorimetric); type: functional, cell-based
[5] = tested on: HL-60; assay: In vitro cytotoxic activity against HL-60 human leukemia cell line was determined by MTT assay (microculture terazolium colorimetric); type: functional, cell-based
[6] = tested on: Mus musculus; assay: In vivo inhibitory activity against human lung adenocarcinoma xenograft A-549 in mice at a dose of 10 mg/kg (Q2dx10) administered i.p.; type: functional; details: route intraperitoneal
[7] = tested on: Mus musculus; assay: (§1) Ratio of the tumor weight of mice at the initial stage and the final stage of the experiment was reported at a dose of 15 mg/kg i.p. (day 9); type: functional; details: route intraperitoneal
[8] = tested on: Mus musculus; assay: (§2) Ratio of the tumor weight of mice at the initial stage and the final stage of the experiment was reported at a dose of 30 mg/kg (Q2dx10) administered i.p.; type: functional; details: route intraperitoneal
[9] = tested on: Mus musculus; assay: (§3) Ratio of the tumor weight of mice at the initial stage and the final stage of the experiment was reported at a dose of 7.5 mg/kg (day 7); type: functional
[10] = tested on: Mus musculus; assay: Ratio of the tumor weight of mice at the initial stage and the final stage of the experiment was reported at a dose of 30 mg/kg (Q2dx9) administered i.p.; type: functional; details: route intraperitoneal
[11] = tested on: Mus musculus; assay: as §3; type: functional; remark: listed apart in the source
[12] = tested on: Mus musculus; assay: In vivo inhibitory activity against human lung adenocarcinoma xenograft A-549 in mice at a dose of 20 mg/kg (Q2dx10) administered i.p.; type: functional; details: route intraperitoneal
[13] = tested on: Mus musculus; assay: In vivo inhibitory activity against murine S-180 sarcoma at a dose of 3.75 mg/kg i.p. (day 7); type: functional; details: S-180, ip, 168 h, route intraperitoneal
[14] = tested on: Mus musculus; assay: (§4) Ratio of the tumor weight of mice at the initial stage and the final stage of the experiment was reported at a dose of 15 mg/kg (day 6); type: functional
[15] = tested on: Mus musculus; assay: (§5) Ratio of the tumor weight of mice at the initial stage and the final stage of the experiment was reported at a dose of 7.5 mg/kg i.p. (day 10); type: functional; details: route intraperitoneal
[16] = tested on: Mus musculus; assay: In vivo inhibitory activity against human lung adenocarcinoma xenograft A-549 in mice at a dose of 20 mg/kg (Q2dx9) administered i.p.; type: functional; details: A549, ip, route intraperitoneal
[17] = tested on: Mus musculus; assay: In vivo inhibitory activity against murine Lewis lung cancer at a dose of 7.5 mg/kg i.p. (day10); type: functional; details: ip, 240 h, route intraperitoneal
[18] = tested on: Mus musculus; assay: Ratio of the tumor weight of mice at the initial stage and the final stage of the experiment was reported at a dose of 3.75 mg/kg i.p. (day 7); type: functional; details: route intraperitoneal
[19] = tested on: Mus musculus; assay: In vivo inhibitory activity against human lung adenocarcinoma xenograft A-549 in mice at a dose of 30 mg/kg (Q2dx10) administered i.p.; type: functional; details: route intraperitoneal
[20] = tested on: Mus musculus; assay: In vivo inhibitory activity against murine S-180 sarcoma at a dose of 7.5 mg/kg i.p. (day 7); type: functional; details: S-180, ip, 168 h, route intraperitoneal
[21] = tested on: Mus musculus; assay: (§6) In vivo inhibitory activity against murine S-180 sarcoma at a dose of 15 mg/kg (day 6); type: functional; details: S-180, 144 h
[22] = tested on: Mus musculus; assay: In vivo inhibitory activity against human lung adenocarcinoma xenograft LAX-83 in mice at a dose of 10 mg/kg (Q2dx10) administered i.p.; type: functional; details: route intraperitoneal; for inhibition in vivo at 10 mg/kg: ip
[23] = tested on: Mus musculus; assay: Ratio of the tumor weight of mice at the initial stage and the final stage of the experiment was reported at a dose of 10 mg/kg (Q2dx10) administered i.p.; type: functional; details: route intraperitoneal
[24] = tested on: Mus musculus; assay: In vivo inhibitory activity against human lung adenocarcinoma xenograft LAX-83 in mice at a dose of 30 mg/kg (Q2dx10) administered i.p.; type: functional; details: route intraperitoneal
[25] = tested on: Mus musculus; assay: Ratio of the tumor weight of mice at the initial stage and the final stage of the experiment was reported at a dose of 20 mg/kg (Q2dx10) administered i.p.; type: functional; details: route intraperitoneal
[26] = tested on: Mus musculus; assay: In vivo inhibitory activity against murine Lewis lung cancer at a dose of 15 mg/kg i.p. (day10); type: functional; details: route intraperitoneal
[27] = tested on: Mus musculus; assay: In vivo inhibitory activity against murine S-180 sarcoma at a dose of 3.75 mg/kg (day 7); type: functional; details: S-180, 168 h
[28] = tested on: Mus musculus; assay: In vivo inhibitory activity against human lung adenocarcinoma xenograft A-549 in mice at a dose of 30 mg/kg (Q2dx9) administered i.p.; type: functional; details: A549, ip, route intraperitoneal
[29] = tested on: Mus musculus; assay: In vivo inhibitory activity against human lung adenocarcinoma xenograft A-549 in mice at a dose of 10 mg/kg (Q2dx9) administered i.p.; type: functional; details: A549, ip, route intraperitoneal
[30] = tested on: Mus musculus; assay: In vivo inhibitory activity against human lung adenocarcinoma xenograft LAX-83 in mice at a dose of 20 mg/kg (Q2dx10) administered i.p.; type: functional; details: route intraperitoneal
[31] = tested on: Mus musculus; assay: Ratio of the tumor weight of mice at the initial stage and the final stage of the experiment was reported at a dose of 3.75 mg/kg i.p. (day 10); type: functional; details: route intraperitoneal
[32] = tested on: Mus musculus; assay: as §2; type: functional; details: route intraperitoneal; remark: listed apart in the source
[33] = tested on: Mus musculus; assay: In vivo inhibitory activity against murine Lewis lung cancer at a dose of 37.5 mg/kg i.p. (day10); type: functional; details: route intraperitoneal
[34] = tested on: Mus musculus; assay: as §1; type: functional; details: route intraperitoneal; remark: listed apart in the source
[35] = tested on: Mus musculus; assay: In vivo inhibitory activity against murine S-180 sarcoma at a dose of 15 mg/kg i.p. (day 6); type: functional; details: S-180, ip, 144 h, route intraperitoneal
[36] = tested on: Mus musculus; assay: (§7) In vivo inhibitory activity against murine S-180 sarcoma at a dose of 7.5 mg/kg (day 7); type: functional; details: S-180, 168 h
[37] = tested on: Mus musculus; assay: as §6; type: functional; details: S-180, 144 h; remark: listed apart in the source
[38] = tested on: Mus musculus; assay: as §7; type: functional; details: S-180, 168 h; remark: listed apart in the source
[39] = tested on: Mus musculus; assay: Ratio of the tumor weight of mice at the initial stage and the final stage of the experiment was reported at a dose of 3.75 mg/kg (day 7); type: functional
[40] = tested on: Mus musculus; assay: as §4; type: functional; remark: listed apart in the source
[41] = tested on: Mus musculus; assay: as §5; type: functional; details: route intraperitoneal; remark: listed apart in the source
[42] = tested on: Mus musculus; assay: Ratio of the tumor weight of mice at the initial stage and the final stage of the experiment was reported at a dose of 20 mg/kg (Q2dx9) administered i.p.; type: functional; details: route intraperitoneal

## Cc1ccc2c(c1CCC1OC1(C)C)C(=O)C(=O)C(C(C)C)=C2 (stereo unspecified)
[1]
  IC50: 71.5 µM
[2]
  IC50: 3380 nM
[3]
  IC50: 1880 nM
[4]
  IC50: 4.48 µM

## Cc1ccc2c(c1CCC(Br)C(C)(C)O)C(=O)C(=O)C(C(C)C)=C2 (stereo unspecified)
[1]
  IC50: 6.12 µM
[2]
  IC50: 3990 nM
[3]
  IC50: 1450 nM
[4]
  IC50: 4.61 µM

## CC(C)=CCCc1c(C)ccc2c1C(=O)C(=O)C(C(C)C)=C2
[1]
  IC50: 1.37 µM
[2]
  IC50: 1950 nM
[3]
  IC50: 2750 nM
[5]
  IC50: 2360 nM

## Cc1ccc2c(c1CCC(=O)C(C)C)C(=O)C(=O)C(C(C)C)=C2
[1]
  IC50: 1.98 µM
[2]
  IC50: 830 nM
[3]
  IC50: 3380 nM
[4]
  IC50: 0.27 µM

## Cc1ccc2c(c1CCC(=O)O)C(=O)C(=O)C(C(C)C)=C2
[1]
  IC50: 66.9 µM
[2]
  IC50: 1460 nM
[3]
  IC50: 2620 nM
[4]
  IC50: 2.84 µM

## Cc1ccc2c(c1CCC(O)C(C)(C)O)C(=O)C(=O)C(C(C)C)=C2 (stereo unspecified)
[6]; Mus musculus, A549, ip
  inhibition in vivo at 10 mg/kg: 48.2%
[6]; 10 mg/kg
  Inhibition: 30.15%
[7]
  Tumor weight: 0.75 g
[8]
  Tumor weight: 0.72 g and 0.53 g and 1.02 g
[9]
  Tumor weight: 1.22 g
[10]
  Tumor weight: 1.67 g
[11]
  Tumor weight: 1.07 g and 1.4 g
[12]
  Inhibition: 60.55% and 27.76%
[13]
  inhibition in vivo at 3.75 mg/kg: 37.2%
[14]
  Tumor weight: 0.93 g
[15]
  Tumor weight: 1.32 g
[16]
  inhibition in vivo at 20 mg/kg: 53.6%
[17]
  inhibition in vivo at 7.5 mg/kg: 34%
[18]
  Tumor weight: 1.52 g
[19]
  Inhibition: 55.6% and 80.14%
[20]
  inhibition in vivo at 7.5 mg/kg: 48.9%
[21]
  inhibition in vivo at 15 mg/kg: 44%
[22]; Mus musculus
  inhibition in vivo at 10 mg/kg: 41%
[22]
  inhibition in vivo at 10 mg/kg: 28%
[22]; 10 mg/kg
  Inhibition: 31.23%
[23]
  Tumor weight: 1.13 g [middle of 5 runs]
[24]
  Inhibition: 40.31% and 51.42% and 61.59%
[1]
  IC50: 1.84 µM
[25]
  Tumor weight: 1.25 g [middle of 5 runs]
[26]; Mus musculus, Lung, ip, 240 h
  inhibition in vivo at 15 mg/kg: 49%
[26]; 15 mg/kg
  Inhibition: 54.5%
[27]
  inhibition in vivo at 3.75 mg/kg: 8.4%
[28]
  inhibition in vivo at 30 mg/kg: 51.2%
[29]
  inhibition in vivo at 10 mg/kg: 25.5%
[30]
  Inhibition: 26.73% and 17.53% and 9.39%
[2]
  IC50: 3490 nM
[31]
  Tumor weight: 1.28 g and 1.85 g
[3]
  IC50: 2460 nM
[32]
  Tumor weight: 0.93 g and 0.44 g
[33]; Mus musculus, Lung, ip, 240 h
  inhibition in vivo at 37.5 mg/kg: 12.9%
[33]; 37.5 mg/kg
  Inhibition: 7.5%
[34]
  Tumor weight: 0.91 g
[35]
  inhibition in vivo at 15 mg/kg: 61.3%
[36]
  inhibition in vivo at 7.5 mg/kg: 32.2%
[37]
  inhibition in vivo at 15 mg/kg: 48.9%
[38]
  inhibition in vivo at 7.5 mg/kg: 35.5%
[39]
  Tumor weight: 1.99 g and 1.72 g
[40]
  Tumor weight: 0.92 g and 1.06 g
[41]
  Tumor weight: 0.97 g
[4]
  IC50: 3.57 µM
[42]
  Tumor weight: 1.59 g
